# Laboratory results reported in patent US20260015311A1, “AMINO LIPID COMPOUND, PREPARATION METHOD THEREFOR, AND USE THEREOF” (SHENZHEN SHENXIN BIOTECHNOLOGY CO., LTD., priority 2022, published 2026).
# Like-named read-outs stand apart in the source and are kept apart here.
# Tests used:
# liver = experiment: Targeting assay, fluorescence in liver after intramuscular injection; type: in vivo, mice; conditions: 15 μg mRNA per animal, 6 h after injection, dissected liver
# Description: The lipids were mixed with DSPC, CHO-HP, M-DMG2000 (i.e. PEG2000-DMG) in a molar ratio of 50:10:38.5:1.5 and dissolved in absolute ethanol. mRNA was dissolved in a sodium acetate solution (0.2M, pH=5.0). The samples of various prescriptions were prepared at a water phase:alcohol phase=9 ml/min: 3 ml/min by using a microfluidic equipment (MPE-L2) and a chip (SN.000035). The two phases were mixed by injecting them into the microfluidic chip according to the interface requirements, and then the drug solution was loaded into a 100KD dialysis bags, immersed in a beaker containing 1 L dialysis solution and wrapped with aluminum foil, and dialyzed at 100 rpm for 1 h at room temperature, and then the dialysis solution was replaced and the dialysis continued for 1 h.
# Formulation of dialysis solution: 1×PBS+8% sucrose solution: 2 packets of 1×PBS powder were taken into a beaker, dissolved with 2 L DEPC water, added with 160 g of sucrose additionally, and mixed to obtain the 1×PBS+8% sucrose solution.
# The mass ratio of mRNA:Lipids in the obtained lipid nanoparticles were about 1:10.
# Fluorescent protein-encoding mRNA-LNP preparations containing Compound (I-6-II), MC3 or SM102, respectively were prepared by using the formulation method of mRNA lipid nanoparticle (LNP) preparations as described above, selecting a fluorescent protein-encoding mRNA as the mRNA and the compound (I-6-II), MC3 or SM102, respectively as the lipid.
# Each preparation to be tested was administered to mice by intramuscular injection, with each animal receiving 15 μg mRNA preparation sample. 6 h after sample injection, the mice were anesthetized by isoflurane inhalation, and injected intraperitoneally with 200 μL of D-Luciferin (concentration 10 mg/ml) luciferase development substrate. […] After development of living imaging of the intramuscularly injected animals, they were immediately dissected, followed by observation of the fluorescence in the liver immediately after the dissection.
# [1] = Toxicokinetic, plasma concentration of compound I-6-II after empty liposome preparation; type: in vivo, cynomolgus monkeys; conditions: for half-life / AUC(0-t) / Cmax / Tmax: cynomolgus monkey, plasma, intramuscular
# Description: 1.9078 g of Compound I-6-II, 0.3985 g of DSPC, 0.7575 g of CHO-HP and 0.1972 g of PEG-DMG (average molecular weight of 2000) were weighed in the molar ratio of 49.5:10:39:1.5, dissolved in absolute ethanol and diluted to 237.5 mL to obtain an alcohol phase. The alcohol phase was mixed and encapsulated by using a microfluidic device (MPE-L^2), with an acetic acid-sodium acetate buffer (0.2 mol/L, pH=5) as the aqueous phase, and a volume ratio of aqueous phase:alcohol phase of 3:1. […]
# The animal experiment was set up with a total of 5 groups (5 animals/gender/group), and the groups and the dosages thereof were as follows: negative control group (0 μg compound I-6-II/animal), empty liposome low-dosage group (300 μg compound I-6-II/animal) and empty liposome high-dosage group (1200 μg compound I-6-II/animal). The animals in each group were administered intramuscularly once every 2 weeks for a total of 3 times, i.e., administered on D1, D15 and D29.
# Blood samples were collected from animals before and 4 h after the first (D1) and the last (D29) administration in the negative control group; and Blood samples were collected from animals before and 15 min, 1 h, 2 h, 4 h, 8 h, 24 h, 32 h and 48 h after the first (D1) and the last (D29) administration in the empty liposome group. The plasma concentration of compound I-6-II in cynomolgus monkeys was detected to investigate the exposure of compound I-6-II in cynomolgus monkeys after administration in each group of animals.
# The main TK parameters of compound I-6-II in animals of the empty liposome low- and high-dosage groups after the first administration (D1) and the last administration (D29) are as shown in Table 7 below.
# SD rats = conditions: Covid-19 S protein mRNA-LNP, 100 μg mRNA/animal, intramuscular once a week for 3 weeks, versus ALC-0315 and SM-102, FIG. 9
# [2] = female, im, 300 ug, empty liposome low-dosage group (300 μg compound I-6-II/animal), D 1, female, Mean
# [3] = female, im, 300 ug, empty liposome low-dosage group (300 μg compound I-6-II/animal), D 29, female, Mean
# [4] = female, im, 1200 ug, empty liposome high-dosage group (1200 μg compound I-6-II/animal), D 1, female, Mean
# [5] = female, im, 1200 ug, empty liposome high-dosage group (1200 μg compound I-6-II/animal), D 29, female, Mean
# [6] = male, im, 300 ug, empty liposome low-dosage group (300 μg compound I-6-II/animal), D 1, male, Mean
# [7] = male, im, 300 ug, empty liposome low-dosage group (300 μg compound I-6-II/animal), D 29, male, Mean
# [8] = male, im, 1200 ug, empty liposome high-dosage group (1200 μg compound I-6-II/animal), D 1, male, Mean
# [9] = male, im, 1200 ug, empty liposome high-dosage group (1200 μg compound I-6-II/animal), D 29, male, Mean
compound,measurement,setting,value
CCCCCCCCCOC(=O)CCCCCCCN(CCCCCCCC(=O)OC(CCCCCCCC)CCCCCCCC)[C@@H]1CCC[C@H](O)C1 [Compound (I-6-II)],fluorescence intensity in liver,liver,2.49E+05
same,accumulation,"[1]; after 4 weeks of continuous administration (3 times in total), cynomolgus monkeys",did not accumulate
same,half-life,"[1]; both sexes, cynomolgus monkeys, over the empty liposome groups, read-out: plasma half-life",4.68 to 6.45 h
same,AUC(0-t),[1]; [2],838 ng·h/mL
same,Cmax,[1]; [2],79.1 ng/mL
same,Tmax,[1]; [2],3.2 h
same,half-life,"[1]; female, im, 300 ug, empty liposome low-dosage group (300 μg compound I-6-II/animal), D 1, female, Mean, read-out: t1/2 (converted)",5.28 h
same,AUC(0-t),[1]; [3],783 ng·h/mL
same,Cmax,[1]; [3],59.3 ng/mL
same,Tmax,[1]; [3],6 h
same,half-life,"[1]; female, im, 300 ug, empty liposome low-dosage group (300 μg compound I-6-II/animal), D 29, female, Mean, read-out: t1/2 (converted)",3.58 h
same,AUC(0-t),[1]; [4],4570 ng·h/mL
same,Cmax,[1]; [4],334 ng/mL
same,Tmax,[1]; [4],5 h
same,half-life,"[1]; female, im, 1200 ug, empty liposome high-dosage group (1200 μg compound I-6-II/animal), D 1, female, Mean, read-out: t1/2 (converted)",5.07 h
same,AUC(0-t),[1]; [5],3090 ng·h/mL
same,Cmax,[1]; [5],194 ng/mL
same,Tmax,[1]; [5],8 h
same,half-life,"[1]; female, im, 1200 ug, empty liposome high-dosage group (1200 μg compound I-6-II/animal), D 29, female, Mean, read-out: t1/2 (converted)",5.29 h
same,AUC(0-t),[1]; [6],652 ng·h/mL
same,Cmax,[1]; [6],50.6 ng/mL
same,Tmax,[1]; [6],4.8 h
same,half-life,"[1]; male, im, 300 ug, empty liposome low-dosage group (300 μg compound I-6-II/animal), D 1, male, Mean, read-out: t1/2 (converted)",5.1 h
same,AUC(0-t),[1]; [7],623 ng·h/mL
same,Cmax,[1]; [7],42.4 ng/mL
same,Tmax,[1]; [7],7.2 h
same,half-life,"[1]; male, im, 300 ug, empty liposome low-dosage group (300 μg compound I-6-II/animal), D 29, male, Mean, read-out: t1/2 (converted)",5.59 h
same,AUC(0-t),[1]; [8],2240 ng·h/mL
same,Cmax,[1]; [8],198 ng/mL
same,Tmax,[1]; [8],3.2 h
same,half-life,"[1]; male, im, 1200 ug, empty liposome high-dosage group (1200 μg compound I-6-II/animal), D 1, male, Mean, read-out: t1/2 (converted)",6.07 h
same,AUC(0-t),[1]; [9],2280 ng·h/mL
same,Cmax,[1]; [9],146 ng/mL
same,Tmax,[1]; [9],8 h
same,half-life,"[1]; male, im, 1200 ug, empty liposome high-dosage group (1200 μg compound I-6-II/animal), D 29, male, Mean, read-out: t1/2 (converted)",6.45 h
same,moderate claudication,SD rats,significantly reduced or decreased
same,severe swelling at the injection site,SD rats,significantly reduced or decreased
